One may read the IC50 as the concentration that inhibits the measured activity by half.

Data on five compounds can be found in PMC12434521, “Characterization of Next-Generation Inhibitors for the Inward-Rectifier Potassium Channel Kir2.1: Discovery of VU6080824” (ACS Medicinal Chemistry Letters, 2025).

One assay deals with Kir7.1. Set-up: method as in PMID 21615117. Particulars: cited from earlier work.
A further assay concerns the target T1, human Kir2.1 (Homo sapiens, UniProt P63252).
T1 construct: expressed in transfected cells
T1 sequence (P63252 1-427): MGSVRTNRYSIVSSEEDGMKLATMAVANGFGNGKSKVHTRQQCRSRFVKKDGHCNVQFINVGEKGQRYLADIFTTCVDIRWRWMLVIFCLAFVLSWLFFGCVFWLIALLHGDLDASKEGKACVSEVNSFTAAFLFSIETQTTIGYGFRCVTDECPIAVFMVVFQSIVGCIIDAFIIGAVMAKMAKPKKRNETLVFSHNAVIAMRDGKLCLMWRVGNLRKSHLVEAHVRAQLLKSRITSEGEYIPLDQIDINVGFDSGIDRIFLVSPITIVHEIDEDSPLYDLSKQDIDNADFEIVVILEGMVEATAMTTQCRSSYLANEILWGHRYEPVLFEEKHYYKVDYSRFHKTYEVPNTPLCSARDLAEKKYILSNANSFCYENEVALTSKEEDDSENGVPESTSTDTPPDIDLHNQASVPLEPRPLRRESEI
Set-up: method as in PMID 21615117. The note with it: pH 7.4; read-out: Kir2.1 manual patch clamp IC50 (original report); cited from earlier work. (Patch clamp records ionic current or voltage across a cell membrane.)

Assay [1] deals with T2, Kir4.1 (Homo sapiens, UniProt P78508).
T2 sequence (P78508 1-379): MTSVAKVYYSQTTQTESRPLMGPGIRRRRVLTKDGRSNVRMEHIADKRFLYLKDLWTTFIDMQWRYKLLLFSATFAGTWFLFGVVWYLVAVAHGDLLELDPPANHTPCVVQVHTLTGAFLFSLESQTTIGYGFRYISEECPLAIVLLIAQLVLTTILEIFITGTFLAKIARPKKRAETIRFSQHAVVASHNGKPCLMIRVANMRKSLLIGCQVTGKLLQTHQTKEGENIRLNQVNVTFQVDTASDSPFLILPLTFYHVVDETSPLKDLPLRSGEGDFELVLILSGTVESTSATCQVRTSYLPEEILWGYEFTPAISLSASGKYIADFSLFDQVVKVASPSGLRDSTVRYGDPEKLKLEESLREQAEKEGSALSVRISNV
Details: method as in PMID 21615117. Particulars: cited from earlier work.

A further assay deals with T3, Kir2.2 (Homo sapiens, UniProt Q14500).
T3 construct: expressed in transfected cells
T3 sequence (Q14500 1-433): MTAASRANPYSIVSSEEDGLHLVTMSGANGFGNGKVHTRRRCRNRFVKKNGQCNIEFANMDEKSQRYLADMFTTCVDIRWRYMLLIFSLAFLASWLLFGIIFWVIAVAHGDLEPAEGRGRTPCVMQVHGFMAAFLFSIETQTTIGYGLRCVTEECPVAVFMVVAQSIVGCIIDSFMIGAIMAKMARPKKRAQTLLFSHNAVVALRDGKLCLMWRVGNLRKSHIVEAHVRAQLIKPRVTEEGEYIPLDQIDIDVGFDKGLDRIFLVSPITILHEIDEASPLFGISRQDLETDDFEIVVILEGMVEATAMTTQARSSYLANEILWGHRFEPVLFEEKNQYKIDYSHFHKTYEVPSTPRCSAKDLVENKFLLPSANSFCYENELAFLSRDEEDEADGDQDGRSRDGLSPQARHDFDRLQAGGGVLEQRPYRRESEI
Nature of the assay: Kir2.2 manual patch clamp (MPC). In kind it is cell-based. As to the method:
(§1) Manual Patch Claim Assay Experimental Conditions
(§2) Whole-cell patch-clamp electrophysiology was used to record K ir2.1 currents from a stably transfected monoclonal T-Rex-HEK-293 cell line with a tetracycline-inducible promoter expressing human Kir2.1, as described previously1 cultured in a 5% CO2 incubator at 37°C. Kir2.1 expression was induced by overnight treatment with 1 µg/mL tetracycline. Cells were dissociated using 0.25% Trypsin-EDTA and seeded onto 12 mm circular coverslips (Electron Microscopy Sciences, PA, USA) for same-day whole-cell patch-clamp recordings. Kir2.1 currents were recorded at room temperature using an AxoPatch 200B amplifier with Clampex 10.7 software (Molecular Devices, USA). The voltage-clamp protocol consisted of a 1-s step to -120 mV from a -80 mV holding potential, followed by a 2-s ramp to +40 mV, repeated every 10 s. Data were sampled at 5 kHz and filtered at 1 kHz. Patch pipettes, pulled from 1.5 mm OD thin-walled capillaries (Warner Instruments, MA, USA) using a Sutter P-1000 puller (Sutter Instrument, CA, USA), had resistances of 2–3 MΩ when filled with intracellular solution containing (mM): 135 KCl, 10 HEPES, 1 EGTA, 2 MgCl2, 2 Na2ATP (pH 7.35, adjusted with KOH). The extracellular solution contained (mM): 135 NaCl, 5 KCl, 2 CaCl2, 1 MgCl2, 5 Glucose, 10 HEPES, 10 Sucrose (pH 7.35, adjusted with NaOH). After establishing stable baseline Kir2.1 currents, cells were perfused with compounds at concentrations of 0.03–30 µM until response saturation (within minutes).
(§3) Recordings concluded with a 2 mM Ba2+ solution to isolate Ba2+-sensitive currents, with compound responses expressed as fractions of this current. Current amplitudes at the -120 mV step were analyzed using Clampfit 11.2 (Molecular Devices). IC50 values were calculated by fitting the Hill equation to concentration-response curves (CRCs) using variable -slope nonlinear regression in GraphPad Prism 10.4 (GraphPad Software).
(§4) MPC experiments for Kir2.2 and Kir2.3 were conducted in an analogous fashion.1

The target in a further assay is T4, Kir2.3 (Homo sapiens, UniProt P48050).
T4 construct: expressed in transfected cells
T4 sequence (P48050 1-445): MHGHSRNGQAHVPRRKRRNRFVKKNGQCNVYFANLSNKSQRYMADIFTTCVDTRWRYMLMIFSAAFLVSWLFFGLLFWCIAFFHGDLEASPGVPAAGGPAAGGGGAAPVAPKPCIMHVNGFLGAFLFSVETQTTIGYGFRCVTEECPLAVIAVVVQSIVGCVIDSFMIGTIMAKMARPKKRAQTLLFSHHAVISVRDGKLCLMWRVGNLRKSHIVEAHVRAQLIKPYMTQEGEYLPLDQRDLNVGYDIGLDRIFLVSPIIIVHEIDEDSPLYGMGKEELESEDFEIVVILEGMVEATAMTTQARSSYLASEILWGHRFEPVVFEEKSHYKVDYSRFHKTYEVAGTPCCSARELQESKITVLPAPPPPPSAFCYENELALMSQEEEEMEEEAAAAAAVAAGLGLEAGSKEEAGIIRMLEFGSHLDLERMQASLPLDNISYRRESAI
Kind of assay: Kir2.3 manual patch clamp (MPC). In kind it is cell-based. As to the method: as §1, §2, §3, §4

Assay [2] concerns the target T2, Kir4.1. Nature of the assay: Kir4.1 thallium flux assay. In kind it is cell-based. The note with it: selective up to 10 μM.

Read-outs that look alike come from different tables or passages of the source.

For `COc1ccc(CNCc2cccc3ccccc23)cc1` [ML133, N-(4-methoxybenzyl)-1-(naphthalen-1-yl)methanamine, reference compound], the IC50 in the assay on Kir7.1 was above 30 µM; at human Kir2.1 it was 1.8 µM; on Kir4.1 [1], above 30 µM.
`[2H]C([2H])([2H])Oc1cccc(-c2ccc(CNCc3ccc(OC)cc3)cc2)c1` [Compound 11]: the “Kir2.1/Kir2.2 Selectivity (MPC)” value on Kir2.2 is recorded as 0.73 fold. Moreover, the “Kir2.1/Kir2.3 Selectivity (MPC)” value on Kir2.3 was 1.3 fold.
The matching figures for `[2H]C([2H])([2H])Oc1ccc(CNCc2ccc(-c3cccc(OC)c3)cc2)cc1` [Compound 9]: 1.4 fold and 1.8 fold.
For `[2H]C([2H])([2H])Oc1ccc(CNCc2ccc(-c3cccc(OC([2H])([2H])[2H])c3)cc2)cc1` [Compound 13] the same measures were 3.2 fold and 2.4 fold.
Consider `COc1ccc(CNCc2ccc(-c3cccc(OC)c3)cc2)cc1` [Compound 5s, 1-(3′-Methoxy-[1,1’-biphenyl]-4-yl)-N-(4-methoxybenzyl)methanamine], for which the IC50 on Kir2.2 was 0.75 µM; against Kir2.3 it was 0.86 µM; at Kir4.1 [2], above 10 µM. The “Kir2.1/Kir2.2 Selectivity (MPC)” value at Kir2.2 is 2.1 fold; at Kir2.2 (listed as VU6080824), “approximately 2 fold”. Also, the “Kir2.1/Kir2.3 Selectivity (MPC)” value at Kir2.3 is recorded as 2.5 fold; at Kir2.3 (listed as VU6080824), “approximately 2 fold”.
